# Assay results from patent publication US20100323990A1, “SHIP 1 MODULATOR PRODRUGS” (THE UNIVERSITY OF BRITISH COLUMBIA, priority 2006, published 2010).
# Columns and labels:
# [1] = tested on: SHIP−/− bone marrow derived macrophages; experiment: LPS-stimulated TNFα production in SHIP−/− bone marrow derived macrophages; assay type: cell-based, mice; details: SHIP−/− cells, 15 μM, 10 ng/mL LPS 2 h
# Description: (§1) Bone marrow cells were aspirated from 4 to 8 week old C57B16×129Sv mixed background mice and SHIP^+/+ and SHIP^−/− mast cells prepared as described previously. Bone marrow derived macrophages from SHIP^+/+ and SHIP^−/− mice were obtained and maintained in IMDM supplemented with 10% FCS, 150 μM MTG, 2% C127 cell conditioned medium as a source of macrophage colony stimulating factor (M-CSF) (macrophage medium)
# LPS stimulation of macrophages. For the analysis of LPS-stimulated TNFα production, 2×10^5 cells were plated the night before in 24 well plates in macrophage medium. The next day, the medium was changed and AQX-016A or carrier was added to cells at the indicated concentrations for 30 min prior to the addition of 10 ng/mL LPS. Supernatants were collected for TNFα determination by ELISA (BD Biosciences, Mississauga, ON, Canada). For analysis of intracellular signaling, 2×10^6 cells were plated the night before in 6 cm tissue culture plates. […] Calcium influx was monitored by spectrofluorometry. […] Total cell lysates were then prepared and analyzed for phospho-PKB, phospho-p38^MAPK, phospho-MAPK, Grb-2 (Cell Signalling, Mississauga, Ont) and SHIP^6 by immunoblot analysis.
# The target specificity and biological efficacy of AQX-016A were assessed by comparing AQX-016A's effects on PI3K-regulated processes in primary SHIP^+/+ vs SHIP^−/− macrophages and mast cells. […]
# [2] = tested on: SHIP+/+ bone marrow derived macrophages; experiment: LPS-stimulated TNFα production in SHIP+/+ bone marrow derived macrophages; assay type: cell-based, mice; details: SHIP+/+ cells, 15 μM, 10 ng/mL LPS 2 h
# Description: as §1
# LPS stimulation of macrophages. For the analysis of LPS-stimulated TNFα production, 2×10^5 cells were plated the night before in 24 well plates in macrophage medium. The next day, the medium was changed and AQX-016A or carrier was added to cells at the indicated concentrations for 30 min prior to the addition of 10 ng/mL LPS. Supernatants were collected for TNFα determination by ELISA (BD Biosciences, Mississauga, ON, Canada). For analysis of intracellular signaling, 2×10^6 cells were plated the night before in 6 cm tissue culture plates. The next day, the cells were cultured in macrophage medium without M-CSF for 1 hr at 37° C. and then pretreated with AQX-016A or carrier for 30 min prior to the addition of 10 ng/mL LPS for 15 min. Cells were washed with 4° C. PBS and resuspended in lysis buffer (50 mM Hepes, 2 mM EDTA, 1 mM NaVO4, 100 mM NaF, 50 mM NaPPi and 1% NP40) supplemented with Complete Protease Inhibitor Cocktail (Roche, Montreal, Canada). Lysates were rocked at 4° C. for 30 min and clarified by centrifuging 20 min at 12000×g. Lysates were then made 1× in Laemmli's buffer, boiled 2 min and loaded onto 7.5% SDS polyacrylamide […]. Immunoblot analysis for phospho PKB (Cell Signalling, Mississauga, Ont), SHIP and actin (Santa Cruz, Santa Cruz, Calif.) were carried out as described previously. Stimulation of mast cells by FcεRI crosslinking. Mast cells were pre-loaded overnight in BMMC medium lacking IL-3 with 0.1 μg/ml anti-DNP IgE (SPE-7, Sigma, Oakville, Ont). For calcium flux measurements, cells were incubated with 2 μM fura 2-acetoxymethyl ester (Molecular Probes, Eugene, Oreg.) in Tyrode's buffer at 23° C. for 45 min. Cells were then washed and incubated in the presence of vehicle control, LY294002 or AQX-016A 30 min prior to stimulation with the indicated concentration of DNP-human serum albumin (DNP-HSA). Calcium influx was monitored by spectrofluorometry. For analysis of intracellular signaling, cells were pre-loaded with anti-DNP IgE as above, pre-treated with AQX-016A or buffer control for 30 min at 37° C. and stimulated with 20 ng/ml DNP-HSA for 5 min. Total cell lysates were then prepared and analyzed for phospho-PKB, phospho-p38^MAPK, phospho-MAPK, Grb-2 (Cell Signalling, Mississauga, Ont) and SHIP^6 by immunoblot analysis.
# The target specificity and biological efficacy of AQX-016A were assessed by comparing AQX-016A's effects on PI3K-regulated processes in primary SHIP^+/+ vs SHIP^−/− macrophages and mast cells. […] LPS stimulation of macrophages is associated with a PIP3-dependent release of pro-inflammatory mediators such as TNFα. The action of AQX-016A on SHIP^+/+ vs SHIP^−/− bone marrow derived macrophages was examined. Cells were pretreated for 30 min with AQX-016A prior to stimulation with 10 ng/mL of LPS for 2 h. AQX-016A was able to suppress TNFα production in SHIP^+/+ cells by 30% at 3 μM and 50% at 15 μM (FIG. 8A). […] Activation of mast cells via IgE+ antigen crosslinking of their IgE receptors results in elevation of intracellular calcium levels.
# SHIP enzyme = experiment: In vitro SHIP enzyme assay (Assay 1), phosphate release by Malachite Green; assay type: biochemical; details: PI-3,4-P2 20 μM, Compound 100 3 μM, 30 μM IP4
# Description: (§2) Assay 1) In vitro testing in a SHIP enzyme assay. Test compounds were dissolved in a suitable solvent (e.g. EtOH, DMSO and others) and diluted into aqueous buffer (20 mM Tris HCl, pH 7.5 and 10 mM MgCl2). SHIP enzyme assays were performed in 96-well microtitre plates with 10 ng of enzyme/well in a total volume of 25 μL of 20 mM Tris HCl, pH 7.5 and 10 mM MgCl2. SHIP enzyme was incubated with test extracts (provided in solvent) or vehicle for 15 min at 23° C. before the addition of 100 μM inositol-1,3,4,5-tetrakisphosphate (Echelon Biosciences Inc, Salt Lake City, Utah). After 20 min at 37° C. and the amount of inorganic phosphate released assessed by the addition of Malachite Green reagent and absorbance measurement at 650 nm. Assay 2) Macrophage TNF-α production. J774.1a macrophage cells were treated with 10 μg/mL of test compound dissolved in solvent (e.g. cyclodextran) for 40 minutes prior to the addition of 100 ng/mL LPS. Culture supernatants were collected after 2 hr and 5 hr for TNF-α determination by ELISA. Assay 3) Macrophage TNF-α NO assay. J774.1a macrophage cells were treated with 10 μg/ml of test compound dissolved in solvent for 40 minutes prior to the addition of LPS. Culture supernatants were collected after 24 hr. for determination of NO concentration using the Griess reagent. Assay 4) Stimulation of mast cells by FcεRI crosslinking. Mast cells were pre-loaded overnight in BMMC medium lacking IL-3 with 0.1 μg/ml anti-DNP IgE (SPE-7, Sigma, Oakville, Ont). For calcium flux measurements, cells were incubated with 2 μM fura 2-acetoxymethyl ester (Molecular Probes, Eugene, Oreg.) in Tyrode's buffer at 23° C. for 45 min. Cells were then washed and incubated in the presence of the test compound 30 min prior to stimulation with the indicated concentration of DNP-human serum albumin (DNP-HSA). Calcium influx was monitored by spectrofluorometry as described previously. For analysis of intracellular signaling, cells were pre-loaded with anti-DNP IgE as above, pre-treated with the test compound for 30 min at 37° C. and stimulated with 20 ng/ml DNP-HSA for 5 min. Total cell lysates were then prepared and analyzed for phospho-PKB, phospho-p38^MAPK, phospho-MAPK, Grb-2 (Cell Signalling, Mississauga, Ont) and SHIP^6 by immunoblot analysis. Assay 5) Mouse acute cutaneous anaphylaxis model. 6-8 week old CD1 mice (University of British Columbia Animal Facility, Vancouver, BC) were sensitized to the hapten DNP by cutaneous application of 25 μL of 0.5% dinitrofluorobenzene (DNFB) (Sigma, Oakville, Ont) in acetone to the shaved abdomen of mice for two consecutive days. 24 hrs later, test substances (dissolved in 10 μL of 1:2 DMSO:MeOH) were painted on the right ear while the left ear received vehicle control. 30 min after drug application, DNFB was applied to both ears to induce mast cell degranulation. A 6 mm punch was taken from the ear and immediately frozen on dry ice for subsequent determination of neutrophil myeloperoxidase (MPO) activity. Assay 6) Mouse endotoxemia model. 6-8 week old C57B16 mice (VCHRI Mammalian Model of Human Disease Core Facility, Vancouver, BC) were orally administered the test compound 30 min prior to an IP injection of 2 mg/kg of LPS (E. Coli serotype 0111:B4, Sigma, Oakville, Ont). Blood was drawn 2 hrs later for determination of plasma TNFα by ELISA. Assay 7) In vitro Mulitple Myeloma (MM) assay. The ability of SHIP activators to reduce tumor cell survival was assessed in MM cell lines treated with the test compound. The lines OPM1, OPM2, MM.1S and RPMI 8226 were plated at a density of 1×10^5 cells/mL in 200 μL of medium with various concentrations of the test compound, and viable cell numbers were determined on day 3 and day 5 by trypan blue exclusion. The lines RPMI 8226 and U266 were plated at a density of 1×10^6 cells/mL in 250 μL of medium with various concentrations of the test compound. At day 4, the medium of each culture was replaced by fresh medium containing the same concentration of test compound. […]
# ΔC2 SHIP = target: T1, ΔC2 SHIP (Homo sapiens, UniProt Q92835, DEL725-863); experiment: SHIP enzyme assay with C2 domain deleted SHIP; assay type: biochemical; details: PI-3,4-P2 20 μM, Compound 100 3 μM, 30 μM IP4
# T1 construct: His6; made in house; host or cells: mammalian expression vector pME18S
# T1 sequence (Q92835 with tags, fused parts or gaps DEL725-863): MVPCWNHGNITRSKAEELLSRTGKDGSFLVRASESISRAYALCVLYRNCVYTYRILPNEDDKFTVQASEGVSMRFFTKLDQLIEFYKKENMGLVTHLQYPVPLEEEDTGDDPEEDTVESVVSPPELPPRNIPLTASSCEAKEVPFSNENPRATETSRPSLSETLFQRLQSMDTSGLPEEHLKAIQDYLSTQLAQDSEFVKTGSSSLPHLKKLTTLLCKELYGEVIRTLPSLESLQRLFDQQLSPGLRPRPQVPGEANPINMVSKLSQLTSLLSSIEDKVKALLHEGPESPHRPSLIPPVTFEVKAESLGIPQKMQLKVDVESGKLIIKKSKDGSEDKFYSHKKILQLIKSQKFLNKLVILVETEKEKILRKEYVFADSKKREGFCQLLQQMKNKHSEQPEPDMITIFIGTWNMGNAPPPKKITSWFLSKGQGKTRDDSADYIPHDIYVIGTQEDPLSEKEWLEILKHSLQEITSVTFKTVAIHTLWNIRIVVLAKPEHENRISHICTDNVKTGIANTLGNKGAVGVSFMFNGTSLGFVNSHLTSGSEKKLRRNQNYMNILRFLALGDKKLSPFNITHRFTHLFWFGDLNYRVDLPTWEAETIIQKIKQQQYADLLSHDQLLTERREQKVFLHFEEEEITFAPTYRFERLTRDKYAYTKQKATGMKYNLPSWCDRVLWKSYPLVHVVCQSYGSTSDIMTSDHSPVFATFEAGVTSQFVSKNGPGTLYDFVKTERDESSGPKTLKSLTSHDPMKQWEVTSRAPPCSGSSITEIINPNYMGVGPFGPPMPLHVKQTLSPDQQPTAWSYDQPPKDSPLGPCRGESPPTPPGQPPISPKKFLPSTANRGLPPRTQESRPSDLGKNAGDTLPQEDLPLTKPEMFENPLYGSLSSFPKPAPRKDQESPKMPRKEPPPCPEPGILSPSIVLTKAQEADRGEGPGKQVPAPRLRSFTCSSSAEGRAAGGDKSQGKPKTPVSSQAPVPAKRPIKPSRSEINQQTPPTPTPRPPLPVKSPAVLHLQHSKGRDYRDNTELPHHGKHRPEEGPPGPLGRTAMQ
# From the text: A His6 tagged SHIP ΔC2 domain deletion mutant (deleting residues 725 to 863) in the mammalian expression vector pME18S was generated by a standard PCR-based methodology. An N-terminal His6 C2 domain construct was also generated by PCR inserted into the pET28C bacterial expression vector using EcoRI and NdeI restriction sites.
# The allosteric regulation of enzymes has remained under-appreciated primarily because allosteric effectors are not easy to find. The molecular mechanism by which Compound 100 activated SHIP was investigated, first by performing classical enzyme kinetic analysis of its phosphatase activity. Activity measurements were performed with substrate concentrations from 10-100 μM.
# The SHIP protein contains a C2 domain located at the carboxyterminal end of its phosphatase domain. […] SHIP lacking its the C2 domain (ΔC2 SHIP) was prepared.
# J774.1a macrophage cells [3] = experiment: Macrophage TNF-α NO assay (Assay 3), Griess reagent; assay type: cell-based; details: 10 μg/ml test compound, LPS, supernatants after 24 hr; also: key: a ‘+’ indicates a positive result for desired activity; a ‘−’ indicates a negative result for desired activity
# Description: as §2
# J774.1a macrophage cells [4] = experiment: Macrophage TNF-α production (Assay 2); assay type: cell-based; details: 10 μg/mL test compound, 100 ng/mL LPS, supernatants after 2 hr and 5 hr; also: key: a ‘+’ indicates a positive result for desired activity; a ‘−’ indicates a negative result for desired activity
# Description: as §2
# J774.1 macrophage cells = experiment: TNFα production in LPS-stimulated J774.1 macrophages (Example 9); assay type: cell-based; details: 2 ng/mL LPS
# Description: An assay to determine the relative inhibition of TNFα production by Compound 103 compared to Compound 100 was conducted as follows.
# J774.1 macrophage cells were plated at 2×10^5 cells/well in 24 well plates. The next day the media was changed and Compound 100, Compound 103 or cyclodextrin carrier were added to the wells at the indicated concentrations for 30 min prior to stimulation of the cells with 2 ng/mL lipopolysaccharide (LPS). LPS activation of macrophages leads to production of TNF alpha which can be detected in the culture supernatant and quantified by ELISA. The results are depicted in a graph in FIG. 1.
structure (smiles),measurement,setting,value
"O=c1cc(N2CCOCC2)oc2c(-c3ccccc3)cccc12 [LY294002, reference compound]",suppression of TNFα production,[1],~40%
same,suppression of TNFα production,[2],~40%
"CCCCCCCCCCCCCCCC(=O)OC[C@H](COP(=O)(O)O[C@H]1[C@H](O)[C@@H](O)[C@H](OP(=O)(O)O)[C@@H](OP(=O)(O)O)[C@H]1O)OC(=O)CCCCCCCCCCCCCCC [PI-3,4-P2, reference compound]",activation of wild-type SHIP enzyme,SHIP enzyme,activated wild-type SHIP enzyme to a similar extent as Compound 100
same,enhancement of ΔC2 SHIP activity,ΔC2 SHIP,could not be enhanced
Cc1cc(OC(=O)CN)cc2c1[C@]1(C)CCC3C(C)(C)CCC[C@]3(C)[C@H]1C2 (stereo partly shown) [Compound 103],"Assay 3: Macrophage NO assay, desired activity",J774.1a macrophage cells [3],+
same,"Assay 2: Macrophage TNF-α production, desired activity",J774.1a macrophage cells [4],+
same,relative inhibition of TNFα production,J774.1 macrophage cells,Inhibits TNF Alpha Production Better than Compound 100
